Tests used:
APESV = experiment: greenhouse pre-emergence herbicidal test; format: in vivo, Apera spica-venti; conditions: pre-emergence method, scale from 0 to 100
Source text: (§1) The seeds of the test plants were sown separately for each species. For the pre-emergence treatment, the active ingredients, which had been suspended or emulsified in water, were applied directly after sowing by means of finely distributing nozzles. The containers were irrigated gently to promote germination and growth and subsequently covered with transparent plastic hoods until the plants had rooted. This cover caused uniform germination of the test plants, unless this had been impaired by the active ingredients. Depending on the species, the plants were kept at 10-25° C. or 20-35° C., respectively. The test period extended over 2 to 4 weeks. During this time, the plants were tended, and their response to the individual treatments was evaluated. Evaluation was carried out using a scale from 0 to 100. 100 means no emergence of the plants, or complete destruction of at least the aerial moieties, and 0 means no damage, or normal course of growth. […] The plants used in the greenhouse experiments were of the following species: [table]

ECHCG [1] = experiment: greenhouse pre-emergence herbicidal test; format: in vivo, Echinocloa crus-galli; conditions: pre-emergence method, scale from 0 to 100
Source text: as §1

ALOMY = experiment: greenhouse post-emergence herbicidal test; format: in vivo, Alopercurus myosuroides; conditions: post-emergence method, scale from 0 to 100
Source text: (§2) The seeds of the test plants were sown separately for each species. For the post-emergence treatment, the test plants were first grown to a height of 3 to 15 cm, depending on the plant habit, and only then treated with the active ingredients which had been suspended or emulsified in water. For this purpose, the test plants were either sown directly and grown in the same containers, or they were first grown separately as seedlings and transplanted into the test containers a few days prior to treatment. Depending on the species, the plants were kept at 10-25° C. or 20-35° C., respectively. The test period extended over 2 to 4 weeks. During this time, the plants were tended, and their response to the individual treatments was evaluated. Evaluation was carried out using a scale from 0 to 100. 100 means no emergence of the plants, or complete destruction of at least the aerial moieties, and 0 means no damage, or normal course of growth. […] The plants used in the greenhouse experiments were of the following species: [table]

AVEFA = experiment: greenhouse post-emergence herbicidal test; format: in vivo, Avena fatua; conditions: post-emergence method, scale from 0 to 100
Source text: as §2

ECHCG [2] = experiment: greenhouse post-emergence herbicidal test; format: in vivo, Echinocloa crus-galli; conditions: post-emergence method, scale from 0 to 100
Source text: as §2

SMILES	herbicidal activity against APESV (APESV; application rate 500 g/ha)	herbicidal activity against ECHCG (ECHCG [1]; application rate 500 g/ha)	herbicidal activity against AVEFA (AVEFA; application rate 500 g/ha)	herbicidal activity against APESV (APESV; application rate 1000 g/ha)	herbicidal activity against ALOMY (ALOMY; application rate 1000 g/ha)	herbicidal activity against AVEFA (AVEFA; application rate 1000 g/ha)	further results
O=C(O)c1nc(C2CC2)ncc1-c1ccc(F)cc1F [example 133]	very good (a very good herbicidal activity is given at values of at least 85)	very good (a very good herbicidal activity is given at values of at least 85)	very good (a very good herbicidal activity is given at values of at least 85)	–	–	–	herbicidal activity against ALOMY (ALOMY; application rate 500 g/ha): very good (a very good herbicidal activity is given at values of at least 85)
O=C(O)c1nc(C2CC2)ncc1-c1c(Cl)cc(Cl)cc1Cl [example 149]	–	–	–	very good (a very good herbicidal activity is given at values of at least 85)	very good (a very good herbicidal activity is given at values of at least 85)	very good (a very good herbicidal activity is given at values of at least 85)	–
N#Cc1cc(F)ccc1-c1cnc(C2CC2)nc1C(=O)O [example 157]	–	–	–	very good (a very good herbicidal activity is given at values of at least 85)	very good (a very good herbicidal activity is given at values of at least 85)	very good (a very good herbicidal activity is given at values of at least 85)	–
Cc1ccc(C)c(-c2cnc(C3CC3)nc2C(=O)O)c1 [example 165]	very good (a very good herbicidal activity is given at values of at least 85)	–	very good (a very good herbicidal activity is given at values of at least 85)	–	–	–	herbicidal activity against ALOMY (ALOMY; application rate 500 g/ha): very good (a very good herbicidal activity is given at values of at least 85)
COC(=O)c1nc(C2CC2)ncc1-c1c(F)cc(Cl)cc1Cl [example 194]	good (A good herbicidal activity is given at values of at least 70)	–	very good (a very good herbicidal activity is given at values of at least 85)	–	–	–	herbicidal activity against ALOMY (ALOMY; application rate 500 g/ha): good (A good herbicidal activity is given at values of at least 70)
COC(=O)c1nc(C2CC2)ncc1-c1c(Cl)cccc1OC [example 202]	–	–	–	good (A good herbicidal activity is given at values of at least 70)	very good (a very good herbicidal activity is given at values of at least 85)	–	herbicidal activity against ECHCG (ECHCG [2]; application rate 1000 g/ha): good (A good herbicidal activity is given at values of at least 70); herbicidal activity against ECHCG (ECHCG [1]; application rate 1000 g/ha): very good (a very good herbicidal activity is given at values of at least 85)
COC(=O)c1nc(C2CC2)ncc1-c1c(Cl)cc(Cl)cc1Cl [example 209]	–	–	–	very good (a very good herbicidal activity is given at values of at least 85)	very good (a very good herbicidal activity is given at values of at least 85)	very good (a very good herbicidal activity is given at values of at least 85)	–
COC(=O)c1nc(C2CC2)ncc1-c1ccccc1C#N [example 217]	very good (a very good herbicidal activity is given at values of at least 85)	very good (a very good herbicidal activity is given at values of at least 85)	–	–	–	–	herbicidal activity against ECHCG (ECHCG [2]; application rate 500 g/ha): very good (a very good herbicidal activity is given at values of at least 85); herbicidal activity against ALOMY (ALOMY; application rate 500 g/ha): good (A good herbicidal activity is given at values of at least 70)
COC(=O)c1nc(C2CC2)ncc1-c1cc(F)ccc1C#N [example 218]	very good (a very good herbicidal activity is given at values of at least 85)	very good (a very good herbicidal activity is given at values of at least 85)	very good (a very good herbicidal activity is given at values of at least 85)	–	–	–	herbicidal activity against ECHCG (ECHCG [2]; application rate 500 g/ha): very good (a very good herbicidal activity is given at values of at least 85)
COC(=O)c1nc(C2CC2)ncc1-c1ccc(F)cc1C#N [example 220]	very good (a very good herbicidal activity is given at values of at least 85)	–	very good (a very good herbicidal activity is given at values of at least 85)	–	–	–	herbicidal activity against ALOMY (ALOMY; application rate 500 g/ha): very good (a very good herbicidal activity is given at values of at least 85)
COC(=O)c1nc(C2CC2)ncc1-c1cc(OC)ccc1C [example 229]	very good (a very good herbicidal activity is given at values of at least 85)	very good (a very good herbicidal activity is given at values of at least 85)	–	–	–	–	herbicidal activity against ECHCG (ECHCG [2]; application rate 500 g/ha): very good (a very good herbicidal activity is given at values of at least 85); herbicidal activity against ALOMY (ALOMY; application rate 500 g/ha): good (A good herbicidal activity is given at values of at least 70)
COC(=O)c1nc(C2CC2)ncc1-c1ccc(C)cc1C [example 231]	–	–	–	very good (a very good herbicidal activity is given at values of at least 85)	good (A good herbicidal activity is given at values of at least 70)	–	herbicidal activity against ECHCG (ECHCG [2]; application rate 1000 g/ha): good (A good herbicidal activity is given at values of at least 70); herbicidal activity against ECHCG (ECHCG [1]; application rate 1000 g/ha): very good (a very good herbicidal activity is given at values of at least 85)
COC(=O)c1nc(C2CC2)ncc1-c1ccccc1C(F)(F)F [example 239]	–	–	–	very good (a very good herbicidal activity is given at values of at least 85)	–	very good (a very good herbicidal activity is given at values of at least 85)	herbicidal activity against ECHCG (ECHCG [1]; application rate 1000 g/ha): very good (a very good herbicidal activity is given at values of at least 85)
CC(C)OC(=O)c1nc(C2CC2)ncc1-c1ccccc1Cl [example 252]	–	–	–	–	very good (a very good herbicidal activity is given at values of at least 85)	very good (a very good herbicidal activity is given at values of at least 85)	herbicidal activity against ECHCG (ECHCG [1]; application rate 1000 g/ha): very good (a very good herbicidal activity is given at values of at least 85)
COC(=O)COC(=O)c1nc(C2CC2)ncc1-c1ccccc1Cl [example 261]	–	–	–	very good (a very good herbicidal activity is given at values of at least 85)	very good (a very good herbicidal activity is given at values of at least 85)	–	herbicidal activity against ECHCG (ECHCG [2]; application rate 1000 g/ha): very good (a very good herbicidal activity is given at values of at least 85); herbicidal activity against ECHCG (ECHCG [1]; application rate 1000 g/ha): very good (a very good herbicidal activity is given at values of at least 85)
O=C(OC1CC1)c1nc(C2CC2)ncc1-c1ccccc1Cl [example 262]	very good (a very good herbicidal activity is given at values of at least 85)	very good (a very good herbicidal activity is given at values of at least 85)	good (A good herbicidal activity is given at values of at least 70)	–	–	–	–
CC(C)OC(=O)CSC(=O)c1nc(C2CC2)ncc1-c1ccccc1Cl [example 279]	very good (a very good herbicidal activity is given at values of at least 85)	very good (a very good herbicidal activity is given at values of at least 85)	very good (a very good herbicidal activity is given at values of at least 85)	–	–	–	–
COc1ccc(CSC(=O)c2nc(C3CC3)ncc2-c2ccccc2Cl)cc1 [example 282]	very good (a very good herbicidal activity is given at values of at least 85)	–	very good (a very good herbicidal activity is given at values of at least 85)	–	–	–	–
CCSC(=O)c1nc(C2CC2)ncc1-c1ccccc1Cl [example 291]	very good (a very good herbicidal activity is given at values of at least 85)	very good (a very good herbicidal activity is given at values of at least 85)	very good (a very good herbicidal activity is given at values of at least 85)	–	–	–	herbicidal activity against ECHCG (ECHCG [2]; application rate 500 g/ha): very good (a very good herbicidal activity is given at values of at least 85)
COC(=O)c1nc(C(F)(F)F)ncc1-c1ccccc1Cl [example 316]	–	–	–	good (A good herbicidal activity is given at values of at least 70)	–	good (A good herbicidal activity is given at values of at least 70)	herbicidal activity against ECHCG (ECHCG [1]; application rate 1000 g/ha): good (A good herbicidal activity is given at values of at least 70)
COC(=O)c1nc(C2CC2)ncc1-c1ccccc1SC(F)(F)F [example 321]	–	–	–	–	–	herbicidal activity	–
